From publication PMC10140954, “Thiolactones and Δ^8,9-Pregnene Steroids from the Marine-Derived Fungus Meira sp. 1210CH-42 and Their α-Glucosidase Inhibitory Activity” (Marine Drugs, 2023) come the findings set out here.

The target of this test is α-glucosidase. The test can be described thus: α-glucosidase inhibition assay (pNPG substrate, absorbance at 405 nm). Format: biochemical. The note with it: for IC50: 0.1 M PBS pH 7.4, 37 °C, α-glucosidase 0.2 U/mL, 5 mM pNPG, triplicate, read-out: α-Glucosidase inhibitory activity, IC50 (50% inhibitory concentration). The protocol:
All the assays were carried out under 0.1 M PBS buffer (pH 7.4, Sigma). The samples (10 mM) were dissolved with DMSO (Sigma) and diluted into gradient concentrations with PBS buffer. The pre-reaction mixture consisted of the 130 μL sample with 30 μL α-glucosidase solution (0.2 U/mL, Sigma) and shaken well, then added to a 96-well plate and placed at 37 °C for 10 min in an incubator. Subsequently, 40 μL of 5 mM p-nitrophenyl-α-D-glucopyranoside (pNPG, TCI) was added and further incubated at 37 °C for 20 min. Finally, the α-glucosidase inhibitory activity was determined by measuring the release of […] at 405 nm of the microplate reader. The negative control was prepared by adding PBS buffer instead of the sample in the same way as the test. The blank was prepared by adding PBS buffer instead of pNPG using the same method.

For `CC(=O)C1CCC2C3=C(CCC12C)C1(C)CCC(O)CC1CC3` (stereo not drawn) [Compound 4, Δ^8,9-3α-hydroxy-5α-17-acetyl steroid], the IC50 worked out at 86 µM.
For the molecule `CC(=O)[C@H]1CC[C@H]2C3=C(CC[C@]12C)[C@@]1(C)CC[C@H](O)C[C@@H]1CC3` [Compound 3, Δ^8,9-3β-hydroxy-5α-17-acetyl steroid], the IC50 amounted to 280 µM.
The same measure, in the same setting: next, `CC(=O)N[C@H]1C(=O)SC[C@@H]1C` [Compound 2, 2R-acetamide-3R-methyl-thiolactone]: 148 µM.
Take `CC(=O)N[C@@H]1C(=O)SC[C@@H]1C` [Compound 1, 2S-acetamide-3R-methyl-thiolactone]: the IC50 is more than 400 µM. The “α-glucosidase inhibitory activity in words” value (at a concentration of 400 μM) is given as “weak inhibitory activity”.
